# Measurements as given in ChEMBL document CHEMBL1201862, “PubChem BioAssay data set” (2004).
#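 Assay format: 96-well plates, 48-hour exposure. GI50 marks 50% less growth.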 Active and inactive are the calls of the source. No stated cut-off is given here; in the data, active = GI50 up to about 1.1 µM and inactive = higher.
# Key:
# Test in all cases: NCI tumour cell line growth inhibition, 48 h
# SNB-75 = system: SNB-75
# OVCAR-4 = system: OVCAR-4
# U-251 = system: U-251
# SNB-19 = system: SNB-19
# SF-295 = system: SF-295
# CCRF-CEM = system: CCRF-CEM
# K562 = system: K562
# MOLT-4 = system: MOLT-4
# OVCAR-3 = system: OVCAR-3
# SK-MEL-5 = system: SK-MEL-5
# KM12 = system: KM12
# SK-MEL-28 = system: SK-MEL-28
# UACC-62 = system: UACC-62
# SW-620 = system: SW-620
# UACC-257 = system: UACC-257
# HL-60 = system: HL-60
# NCI-H522 = system: NCI-H522
# NCI-H23 = system: NCI-H23
# LXFL 529 = system: LXFL 529
# LOX IMVI = system: LOX IMVI
# HOP-92 = system: HOP-92
# HOP-18 = system: HOP-18
# SR = system: SR
# OVCAR-5 = system: OVCAR-5
# SN12C = system: SN12C
# SNB-78 = system: SNB-78
# EKVX = system: EKVX
# 786-0 = system: 786-0
# XF498 = system: XF498
# A549 = system: A549
# IGROV-1 = system: IGROV-1
# SK-MEL-2 = system: SK-MEL-2
# SK-OV-3 = system: SK-OV-3
# M14 = system: M14
# DMS-114 = system: DMS-114
# DMS-273 = system: DMS-273
# COLO 205 = system: COLO 205
# HCT-15 = system: HCT-15
# TK-10 = system: TK-10
# NCI-H460 = system: NCI-H460
# SF-268 = system: SF-268
# HT-29 = system: HT-29
# HOP-62 = system: HOP-62
# A498 = system: A498
# ACHN = system: ACHN
# Malme-3M = system: Malme-3M
# DLD-1 = system: DLD-1
# SF-539 = system: SF-539
# UO-31 = system: UO-31
# HCT-116 = system: HCT-116
# RXF 393 = system: RXF 393
# CAKI-1 = system: CAKI-1
# OVCAR-8 = system: OVCAR-8
# NCI/ADR-RES = system: NCI/ADR-RES
# RPMI-8226 = system: RPMI-8226
# M19-MEL = system: M19-MEL
# KM-20L2 = system: KM-20L2
# NCI-H226 = system: NCI-H226
# HCC 2998 = system: HCC 2998
# MCF7 = system: MCF7
structure (smiles),measurement,setting,value
NCP(=O)(O)OCC(=O)O,GI50,SNB-75,> 100 µM (inactive)
same,GI50,OVCAR-4,> 100 µM (inactive)
same,GI50,U-251,> 100 µM (inactive)
same,GI50,SNB-19,> 100 µM (inactive)
same,GI50,SF-295,> 100 µM (inactive)
same,GI50,CCRF-CEM,> 100 µM (inactive)
same,GI50,K562,> 100 µM (inactive)
same,GI50,MOLT-4,> 100 µM (inactive)
same,GI50,OVCAR-3,> 100 µM (inactive)
same,GI50,SK-MEL-5,> 100 µM (inactive)
same,GI50,KM12,> 100 µM (inactive)
same,GI50,SK-MEL-28,> 100 µM (inactive)
same,GI50,UACC-62,> 100 µM (inactive)
same,GI50,SW-620,> 100 µM (inactive)
same,GI50,UACC-257,> 100 µM (inactive)
same,GI50,HL-60,> 100 µM (inactive)
same,GI50,NCI-H522,> 100 µM (inactive)
same,GI50,NCI-H23,> 100 µM (inactive)
same,GI50,LXFL 529,> 100 µM (inactive)
same,GI50,LOX IMVI,> 100 µM (inactive)
same,GI50,HOP-92,> 100 µM (inactive)
same,GI50,HOP-18,> 100 µM (inactive)
same,GI50,SR,> 100 µM (inactive)
same,GI50,OVCAR-5,> 100 µM (inactive)
same,GI50,SN12C,> 100 µM (inactive)
same,GI50,SNB-78,> 100 µM (inactive)
same,GI50,EKVX,> 100 µM (inactive)
same,GI50,786-0,> 100 µM (inactive)
same,GI50,XF498,> 100 µM (inactive)
same,GI50,A549,> 100 µM (inactive)
same,GI50,IGROV-1,> 100 µM (inactive)
same,GI50,SK-MEL-2,> 100 µM (inactive)
same,GI50,SK-OV-3,> 100 µM (inactive)
same,GI50,M14,> 100 µM (inactive)
same,GI50,DMS-114,> 100 µM (inactive)
same,GI50,DMS-273,> 100 µM (inactive)
same,GI50,COLO 205,> 100 µM (inactive)
same,GI50,HCT-15,> 100 µM
same,GI50,TK-10,> 100 µM (inactive)
same,GI50,NCI-H460,> 100 µM (inactive)
same,GI50,SF-268,> 100 µM (inactive)
same,GI50,HT-29,> 100 µM (inactive)
same,GI50,HOP-62,> 100 µM (inactive)
same,GI50,A498,> 100 µM (inactive)
same,GI50,ACHN,> 100 µM (inactive)
same,GI50,Malme-3M,> 100 µM (inactive)
same,GI50,DLD-1,> 100 µM (inactive)
same,GI50,SF-539,> 100 µM (inactive)
same,GI50,UO-31,> 100 µM (inactive)
same,GI50,HCT-116,> 100 µM (inactive)
same,GI50,RXF 393,> 100 µM (inactive)
same,GI50,CAKI-1,> 100 µM (inactive)
same,GI50,OVCAR-8,> 100 µM (inactive)
N/C(=N\O)N/N=C\c1ccccc1O,GI50,SNB-75,9.48 µM (inactive)
same,GI50,OVCAR-4,4.06 µM (inactive)
same,GI50,U-251,8.34 µM (inactive)
same,GI50,SNB-19,18.9 µM (inactive)
same,GI50,SF-295,4 µM (inactive)
same,GI50,CCRF-CEM,5.6 µM (inactive)
same,GI50,K562,3.99 µM (inactive)
same,GI50,MOLT-4,7.13 µM (inactive)
same,GI50,OVCAR-3,10.4 µM (inactive)
same,GI50,SK-MEL-5,10 µM (inactive)
same,GI50,KM12,5.02 µM (inactive)
same,GI50,NCI/ADR-RES,4.14 µM (inactive)
same,GI50,SK-MEL-28,19.3 µM (inactive)
same,GI50,UACC-62,5.64 µM (inactive)
same,GI50,RPMI-8226,1.48 µM (inactive)
same,GI50,SW-620,13.1 µM (inactive)
same,GI50,UACC-257,16.2 µM (inactive)
same,GI50,M19-MEL,16.6 µM (inactive)
same,GI50,HL-60,0.977 µM (active)
same,GI50,NCI-H522,11.8 µM (inactive)
same,GI50,NCI-H23,7.6 µM (inactive)
same,GI50,LOX IMVI,5.48 µM (inactive)
same,GI50,HOP-92,8.79 µM (inactive)
same,GI50,HOP-18,27.2 µM (inactive)
same,GI50,KM-20L2,10.2 µM (inactive)
same,GI50,OVCAR-5,37.5 µM (inactive)
same,GI50,SN12C,11.6 µM (inactive)
same,GI50,SNB-78,21.9 µM (inactive)
same,GI50,EKVX,11.2 µM (inactive)
same,GI50,NCI-H226,16 µM (inactive)
same,GI50,XF498,1.04 µM (active)
same,GI50,A549,6.01 µM (inactive)
same,GI50,IGROV-1,11.3 µM (inactive)
same,GI50,SK-MEL-2,21 µM (inactive)
same,GI50,HCC 2998,3.24 µM (inactive)
same,GI50,SK-OV-3,31.3 µM (inactive)
same,GI50,DMS-114,4.73 µM (inactive)
same,GI50,DMS-273,4.38 µM (inactive)
same,GI50,COLO 205,5.81 µM (inactive)
same,GI50,HCT-15,3.48 µM
same,GI50,NCI-H460,3.29 µM (inactive)
same,GI50,SF-268,12.4 µM (inactive)
same,GI50,HT-29,4.19 µM (inactive)
same,GI50,HOP-62,11.2 µM (inactive)
same,GI50,A498,8.95 µM (inactive)
same,GI50,Malme-3M,22.4 µM (inactive)
same,GI50,DLD-1,5.02 µM (inactive)
same,GI50,SF-539,14.5 µM (inactive)
same,GI50,UO-31,7.98 µM (inactive)
same,GI50,MCF7,4.32 µM (inactive)
same,GI50,HCT-116,4.85 µM (inactive)
same,GI50,RXF 393,7.98 µM (inactive)
same,GI50,CAKI-1,3.84 µM (inactive)
same,GI50,OVCAR-8,3.2 µM (inactive)
